What was measured:
rape = assay: Test B pre/postemergence rape; type: in vivo, Brassica napus
How it was run: (§1)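 Test chemicals in a non-phytotoxic solvent mixture with surfactant were sprayed preemergence onto planted seeds and postemergence onto plants 2 to 18 cm tall (1- to 4-leaf stage). After twelve to sixteen days in a greenhouse, injury was visually rated against untreated controls from 0 (no effect) to 10 (complete control).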

giant foxtail = assay: Test B pre/postemergence giant foxtail; type: in vivo, Setaria faberii
How it was run: as §1

purple nutsedge = assay: Test B pre/postemergence purple nutsedge; type: in vivo, Cyperus rotundus
How it was run: as §1

surinam grass = assay: Test B pre/postemergence surinam grass; type: in vivo, Brachiaria decumbens
How it was run: as §1

corn = assay: Test B pre/postemergence corn; type: in vivo, Zea mays
How it was run: as §1

cocklebur = assay: Test B pre/postemergence cocklebur; type: in vivo, Xanthium strumarium
How it was run: as §1

crabgrass = assay: Test B pre/postemergence crabgrass; type: in vivo, Digitaria sanguinalis
How it was run: as §1

morningglory = assay: Test B pre/postemergence morningglory; type: in vivo, Ipomoea hederacea
How it was run: as §1

pigweed = assay: Test B pre/postemergence pigweed; type: in vivo, Amaranthus retroflexus
How it was run: as §1

wild oat = assay: Test B pre/postemergence wild oat; type: in vivo, Avena fatua
How it was run: as §1

blackgrass = assay: Test B pre/postemergence blackgrass; type: in vivo, Alopecurus myosuroides
How it was run: as §1

bedstraw = assay: Test B pre/postemergence bedstraw; type: in vivo, Galium aparine; settings: Preemergence
How it was run: as §1

sugar beet = assay: Test B pre/postemergence sugar beet; type: in vivo, Beta vulgaris
How it was run: as §1

soybean = assay: Test B pre/postemergence soybean; type: in vivo, Glycine max
How it was run: as §1

wheat = assay: Test B pre/postemergence wheat; type: in vivo, Triticum aestivum
How it was run: as §1

velvetleaf = assay: Test B pre/postemergence velvetleaf; type: in vivo, Abutilon theophrasti
How it was run: as §1

[1] = Postemergence, Rate 62 g/ha, scale 0 to 10, 0 is no effect, 10 is complete control
[2] = Preemergence, Rate 62 g/ha, scale of 0 to 10 where 0 is no effect and 10 is complete control
[3] = Preemergence, Rate 125 g/ha, scale of 0 to 10 where 0 is no effect and 10 is complete control
[4] = Preemergence, Rate 250 g/ha, scale 0 to 10 (0 no effect, 10 complete control)
[5] = Preemergence, Rate 500 g/ha, scale of 0 to 10 where 0 is no effect and 10 is complete control
[6] = Rate 500 g/ha, Postemergence, scale 0 to 10, 0 is no effect, 10 is complete control
[7] = Postemergence, Rate 125 g/ha, scale of 0 to 10 where 0 is no effect and 10 is complete control
[8] = Postemergence, Rate 250 g/ha, scale of 0 to 10, 0 is no effect, 10 is complete control

Compound: C#CC(C=C(C)C)n1c(=O)on(C(=O)N(c2ccccc2)C(C)C)c1=O (centres unmarked) [Compound 652]
- Plant response rating, Rape (rape; [1]): 0
- Rape plant response rating (rape; [2]): 0
- Rape plant response rating (rape; [3]): 0
- Plant response rating, Rape (rape; [4]): 0
- Plant response rating, Rape (rape; [5]): 0
- Rape plant response rating (rape; [6]): 0
- Plant response rating, Giant foxtail (giant foxtail; [1]): 0
- Giant foxtail plant response rating (giant foxtail; [7]): 3
- Giant foxtail plant response rating (giant foxtail; [8]): 4
- Giant foxtail plant response rating (giant foxtail; [2]): 8
- Giant foxtail plant response rating (giant foxtail; [3]): 9
- Plant response rating, Giant foxtail (giant foxtail; [4]): 9
- Plant response rating, Giant foxtail (giant foxtail; [5]): 9
- Giant foxtail plant response rating (giant foxtail; [6]): 8
- Nutsedge plant response rating (purple nutsedge; [7]): 0
- Nutsedge plant response rating (purple nutsedge; [2]): 0
- Nutsedge plant response rating (purple nutsedge; [3]): 0
- Plant response rating, Nutsedge (purple nutsedge; [4]): 0
- Plant response rating, Nutsedge (purple nutsedge; [5]): 3
- Nutsedge plant response rating (purple nutsedge; [6]): 0
- Plant response rating, B. signalgrass (surinam grass; [1]): 0
- Plant response rating, B. signalgrass (surinam grass; [7]): 0
- B. signalgrass plant response rating (surinam grass; [8]): 0
- B. signalgrass plant response rating (surinam grass; [2]): 0
- B. signalgrass plant response rating (surinam grass; [3]): 0
- Plant response rating, B. signalgrass (surinam grass; [4]): 2
- Plant response rating, B. signalgrass (surinam grass; [5]): 2
- B. signalgrass plant response rating (surinam grass; [6]): 2
- Plant response rating, Corn (corn; [1]): 0
- Corn plant response rating (corn; [7]): 0
- Corn plant response rating (corn; [8]): 0
- Corn plant response rating (corn; [2]): 0
- Corn plant response rating (corn; [3]): 0
- Plant response rating, Corn (corn; [4]): 0
- Plant response rating, Corn (corn; [5]): 0
- Corn plant response rating (corn; [6]): 0
- Plant response rating, Cocklebur (cocklebur; [1]): 0
- Cocklebur plant response rating (cocklebur; [7]): 0
- Cocklebur plant response rating (cocklebur; [8]): 0
- Cocklebur plant response rating (cocklebur; [2]): 0
- Cocklebur plant response rating (cocklebur; [3]): 0
- Plant response rating, Cocklebur (cocklebur; [4]): 0
- Plant response rating, Cocklebur (cocklebur; [5]): 3
- Cocklebur plant response rating (cocklebur; [6]): 0
- Plant response rating, Crabgrass (crabgrass; [1]): 0
- Crabgrass plant response rating (crabgrass; [7]): 0
- Crabgrass plant response rating (crabgrass; [8]): 0
- Crabgrass plant response rating (crabgrass; [2]): 4
- Crabgrass plant response rating (crabgrass; [3]): 8
- Plant response rating, Crabgrass (crabgrass; [4]): 8
- Plant response rating, Crabgrass (crabgrass; [5]): 9
- Crabgrass plant response rating (crabgrass; [6]): 6
- Plant response rating, Morningglory (morningglory; [1]): 3
- Morningglory plant response rating (morningglory; [7]): 3
- Morningglory plant response rating (morningglory; [8]): 5
- Morningglory plant response rating (morningglory; [2]): 0
- Morningglory plant response rating (morningglory; [3]): 0
- Plant response rating, Morningglory (morningglory; [4]): 0
- Plant response rating, Morningglory (morningglory; [5]): 0
- Morningglory plant response rating (morningglory; [6]): 7
- Plant response rating, Redroot pigweed (pigweed; [1]): 0
- Redroot pigweed plant response rating (pigweed; [7]): 0
- Redroot pigweed plant response rating (pigweed; [2]): 0
- Redroot pigweed plant response rating (pigweed; [3]): 0
- Plant response rating, Redroot pigweed (pigweed; [4]): 0
- Plant response rating, Redroot pigweed (pigweed; [5]): 0
- Redroot pigweed plant response rating (pigweed; [6]): 6
- Plant response rating, Wild oats (wild oat; [1]): 0
- Wild oats plant response rating (wild oat; [7]): 0
- Wild oats plant response rating (wild oat; [2]): 0
- Wild oats plant response rating (wild oat; [3]): 0
- Plant response rating, Wild oats (wild oat; [4]): 0
- Plant response rating, Wild oats (wild oat; [5]): 0
- Wild oats plant response rating (wild oat; [6]): 0
- Plant response rating, Blackgrass (blackgrass; [1]): 0
- Blackgrass plant response rating (blackgrass; [7]): 0
- Blackgrass plant response rating (blackgrass; [8]): 0
- Blackgrass plant response rating (blackgrass; [2]): 0
- Blackgrass plant response rating (blackgrass; [3]): 0
- Plant response rating, Blackgrass (blackgrass; [4]): 0
- Plant response rating, Blackgrass (blackgrass; [5]): 2
- Blackgrass plant response rating (blackgrass; [6]): 0
- Bedstraw plant response rating (bedstraw; Rate 62 g/ha, scale of 0 to 10 where 0 is no effect and 10 is complete control): 0
- Bedstraw plant response rating (bedstraw; Rate 125 g/ha, scale of 0 to 10 where 0 is no effect and 10 is complete control): 0
- Plant response rating, Bedstraw (bedstraw; Rate 250 g/ha, scale 0 to 10 (0 no effect, 10 complete control)): 0
- Plant response rating, Bedstraw (bedstraw; Rate 500 g/ha, scale of 0 to 10 where 0 is no effect and 10 is complete control): 0
- Plant response rating, Sugarbeets (sugar beet; [1]): 0
- Sugarbeets plant response rating (sugar beet; [2]): 0
- Sugarbeets plant response rating (sugar beet; [3]): 0
- Plant response rating, Sugarbeets (sugar beet; [4]): 0
- Plant response rating, Sugarbeets (sugar beet; [5]): 0
- Sugarbeets plant response rating (sugar beet; [6]): 2
- Plant response rating, Soybean (soybean; [1]): 0
- Soybean plant response rating (soybean; [7]): 0
- Soybean plant response rating (soybean; [2]): 0
- Soybean plant response rating (soybean; [3]): 0
- Plant response rating, Soybean (soybean; [4]): 0
- Plant response rating, Soybean (soybean; [5]): 0
- Soybean plant response rating (soybean; [6]): 3
- Plant response rating, Wheat (wheat; [1]): 0
- Wheat plant response rating (wheat; [7]): 0
- Wheat plant response rating (wheat; [2]): 0
- Wheat plant response rating (wheat; [3]): 0
- Plant response rating, Wheat (wheat; [4]): 0
- Plant response rating, Wheat (wheat; [5]): 0
- Wheat plant response rating (wheat; [6]): 2
- Plant response rating, Velvetleaf (velvetleaf; [1]): 0
- Velvetleaf plant response rating (velvetleaf; [7]): 0
- Velvetleaf plant response rating (velvetleaf; [2]): 0
- Velvetleaf plant response rating (velvetleaf; [3]): 0
- Plant response rating, Velvetleaf (velvetleaf; [4]): 0
- Plant response rating, Velvetleaf (velvetleaf; [5]): 1
- Velvetleaf plant response rating (velvetleaf; [6]): 0
